{
  "source": "patent US12448388B2",
  "about": "“PRMT5 inhibitors and uses thereof” (Gilead Sciences, Inc., priority 2023, dated 2025)",
  "data": [
    {"tested_on": "HCT116 MTAP-deleted cell lines", "test": "Cell viability assay (CellTiter-Glo, 7 days), HCT116 MTAP-deleted", "assay_type": "cell-based", "conditions": "Homo sapiens, HCT-116; cell viability assay, HCT116 MTAP-deleted; class symbols; read-out: CC50", "procedure,_shortened": "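Read-out was CellTiter-Glo luminescence after a 7-day incubation (37 °C, 5% CO2) of HCT116 cells, MTAP-deleted or WT, on dose-response compound plates. CC50 values come from each line; where marked *, selectivity is overstated because poor solubility impaired the WT CC50 measurement.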", "units": {"CC50": "nM"}, "values": [
      {"smiles": "CC1(C)CN(C(=O)c2cc3c(cc2F)nc(N)c2cncn23)C(c2ccc(C(F)(F)F)cn2)CO1", "note": "(centres unmarked) [Ff-513, (4-amino-7-fluoroimidazo[1,5-a]quinoxalin-8-yl)(2,2-dimethyl-5-(5-(trifluoromethyl)pyridin-2-yl)morpholino)methanone]", "CC50": "< 100"},
      {"smiles": "CN(C(=O)c1cc2c(cc1F)nc(N)c1cncn12)[C@@H]1COc2cc(C#CC3(C)CC3)ccc21", "note": "[Ff-514, (S)-4-amino-7-fluoro-N-methyl-N-(6-((1-methylcyclopropyl)ethynyl)-2,3-dihydrobenzofuran-3-yl)imidazo[1,5-a]quinoxaline-8-carboxamide]", "CC50": "100 to 1000"},
      {"smiles": "CN(C(=O)c1cc2c(cc1F)nc(N)c1cncn12)[C@@H]1COc2cc(C#CC(F)(F)F)ccc21", "note": "[Ff-515, (S)-4-amino-7-fluoro-N-methyl-N-(6-(3,3,3-trifluoroprop-1-yn-1-yl)-2,3-dihydrobenzofuran-3-yl)imidazo[1,5-a]quinoxaline-8-carboxamide]", "CC50": "100 to 1000"},
      {"smiles": "COC1(C#Cc2ccc3c(c2)OC[C@H]3N(C)C(=O)c2cc3c(cc2F)nc(N)c2cncn23)CCC1", "note": "[Ff-517, (S)-4-amino-7-fluoro-N-(6-((1-methoxycyclobutyl)ethynyl)-2,3-dihydrobenzofuran-3-yl)-N-methylimidazo[1,5-a]quinoxaline-8-carboxamide]", "CC50": "100 to 1000"},
      {"smiles": "CN(C(=O)c1ccc2nc(N)c3cncn3c2c1)[C@@H]1COc2cc(C#CC3(C)COC3)ccc21", "note": "[Ff-518, (S)-4-amino-N-methyl-N-(6-((3-methyloxetan-3-yl)ethynyl)-2,3-dihydrobenzofuran-3-yl)imidazo[1,5-a]quinoxaline-8-carboxamide]", "CC50": "< 100"},
      {"smiles": "COC1(C#Cc2ccc3c(c2)OC[C@H]3N(C)C(=O)c2ccc3nc(N)c4cncn4c3c2)CCC1", "note": "[Ff-519, (S)-4-amino-N-(6-((1-methoxycyclobutyl)ethynyl)-2,3-dihydrobenzofuran-3-yl)-N-methylimidazo[1,5-a]quinoxaline-8-carboxamide]", "CC50": "100 to 1000"},
      {"smiles": "CN(C(=O)c1ccc2nc(N)c3cncn3c2c1)[C@@H]1COc2cc(C#CC3(CF)CC3)ccc21", "note": "[Ff-520, (S)-4-amino-N-(6-((1-(fluoromethyl)cyclopropyl)ethynyl)-2,3-dihydrobenzofuran-3-yl)-N-methylimidazo[1,5-a]quinoxaline-8-carboxamide]", "CC50": "100 to 1000"},
      {"smiles": "CN(C(=O)c1ccc2nc(N)c3cncn3c2c1)[C@@H]1COc2cc(C#CC3(C(F)F)CC3)ccc21", "note": "[Ff-521, (S)-4-amino-N-(6-((1-(difluoromethyl)cyclopropyl)ethynyl)-2,3-dihydrobenzofuran-3-yl)-N-methylimidazo[1,5-a]quinoxaline-8-carboxamide]", "CC50": "100 to 1000"},
      {"smiles": "CN(C(=O)c1cc2c(cc1F)nc(N)c1cncn12)[C@@H]1COc2cc(C#CC3(C(F)(F)F)CC3)ccc21", "note": "[Ff-522, (S)-4-amino-7-fluoro-N-methyl-N-(6-((1-(trifluoromethyl)cyclopropyl)ethynyl)-2,3-dihydrobenzofuran-3-yl)imidazo[1,5-a]quinoxaline-8-carboxamide]", "CC50": "100 to 1000"},
      {"smiles": "CN(C(=O)c1cc2c(cc1F)nc(N)c1cncn12)[C@@H]1COc2cc(C#CC34CCC(CC3)OC4)ccc21", "note": "[Ff-523, (S)—N-(6-((2-oxabicyclo[2.2.2]octan-4-yl)ethynyl)-2,3-dihydrobenzofuran-3-yl)-4-amino-7-fluoro-N-methylimidazo[1,5-a]quinoxaline-8-carboxamide]", "CC50": "100 to 1000"},
      {"smiles": "CN(C(=O)c1cc2c(cc1F)nc(N)c1cncn12)[C@@H]1COc2cc(C#CC3C4COCC34)ccc21", "note": "(stereo partly drawn) [Ff-524, N-((3S)-6-((3-oxabicyclo[3.1.0]hexan-6-yl)ethynyl)-2,3-dihydrobenzofuran-3-yl)-4-amino-7-fluoro-N-methylimidazo[1,5-a]quinoxaline-8-carboxamide]", "CC50": "< 100"},
      {"smiles": "CN(C(=O)c1cc2c(cc1F)nc(N)c1cncn12)[C@@H]1COc2cc(C#CC3CC(F)(F)C3)ccc21", "note": "[Ff-525, (S)-4-amino-N-(6-((3,3-difluorocyclobutyl)ethynyl)-2,3-dihydrobenzofuran-3-yl)-7-fluoro-N-methylimidazo[1,5-a]quinoxaline-8-carboxamide]", "CC50": "100 to 1000"},
      {"smiles": "CN(C(=O)c1ccc2nc(N)c3cncn3c2c1)[C@@H]1COc2cc(C#CC(C)(C)S(C)(=O)=O)ccc21", "note": "[Ff-526, (S)-4-amino-N-methyl-N-(6-(3-methyl-3-(methylsulfonyl)but-1-yn-1-yl)-2,3-dihydrobenzofuran-3-yl)imidazo[1,5-a]quinoxaline-8-carboxamide]", "CC50": "100 to 1000"},
      {"smiles": "CN(C(=O)c1ccc2nc(N)c3cncn3c2c1)[C@@H]1COc2cc(C#CC3(O)COC3)ccc21", "note": "[Ff-527, (S)-4-amino-N-(6-((3-hydroxyoxetan-3-yl)ethynyl)-2,3-dihydrobenzofuran-3-yl)-N-methylimidazo[1,5-a]quinoxaline-8-carboxamide]", "CC50": "100 to 1000"},
      {"smiles": "CN(C(=O)c1ccc2nc(N)c3cncn3c2c1)[C@@H]1COc2cc(C#CC34CCC(CC3)O4)ccc21", "note": "[Ff-528, (S)—N-(6-((7-oxabicyclo[2.2.1]heptan-1-yl)ethynyl)-2,3-dihydrobenzofuran-3-yl)-4-amino-N-methylimidazo[1,5-a]quinoxaline-8-carboxamide]", "CC50": "100 to 1000"},
      {"smiles": "CC(=O)N1CC(C#Cc2ccc3c(c2)OC[C@H]3N(C)C(=O)c2ccc3nc(N)c4cncn4c3c2)C1", "note": "[Ff-529]", "CC50": "100 to 1000"},
      {"smiles": "CN(C(=O)c1cc2c(cc1F)nc(N)c1cncn12)[C@@H]1COCc2cc(C#CC3(C)COC3)ccc21", "note": "[Ff-530, (S)-4-amino-7-fluoro-N-methyl-N-(7-((3-methyloxetan-3-yl)ethynyl)isochroman-4-yl)imidazo[1,5-a]quinoxaline-8-carboxamide]", "CC50": "< 100"},
      {"smiles": "COC1(C#Cc2ccc3c(c2)OC[C@H]3N(C)C(=O)c2ccc3nc(N)c4cncn4c3c2)CC1", "note": "[Ff-531, (S)-4-amino-N-(6-((1-methoxycyclopropyl)ethynyl)-2,3-dihydrobenzofuran-3-yl)-N-methylimidazo[1,5-a]quinoxaline-8-carboxamide]", "CC50": "100 to 1000"},
      {"smiles": "C[C@H](c1ccc(C(F)(F)F)cn1)N(C)C(=O)c1cc2c(cc1F)nc(N)c1cncn12", "note": "[Ff-532, (R)-4-amino-7-fluoro-N-methyl-N-(1-(5-(trifluoromethyl)pyridin-2-yl)ethyl)imidazo[1,5-a]quinoxaline-8-carboxamide]", "CC50": "< 100"},
      {"smiles": "C[C@@H](c1ccc(C(F)(F)F)cc1F)N(C)C(=O)c1cc2c(cc1F)nc(N)c1cncn12", "note": "[Ff-533, (S)-4-amino-7-fluoro-N-(1-(2-fluoro-4-(trifluoromethyl)phenyl)ethyl)-N-methylimidazo[1,5-a]quinoxaline-8-carboxamide]", "CC50": "100 to 1000"},
      {"smiles": "C[C@H](c1ccc(C(F)(F)F)cc1F)N(C)C(=O)c1cc2c(cc1F)nc(N)c1cncn12", "note": "[Ff-534, (R)-4-amino-7-fluoro-N-(1-(2-fluoro-4-(trifluoromethyl)phenyl)ethyl)-N-methylimidazo[1,5-a]quinoxaline-8-carboxamide]", "CC50": "< 100"},
      {"smiles": "COc1cc(C(F)(F)F)ccc1[C@@H](C)N(C)C(=O)c1cc2c(cc1F)nc(N)c1cncn12", "note": "[Ff-535, (R)-4-amino-7-fluoro-N-(1-(2-methoxy-4-(trifluoromethyl)phenyl)ethyl)-N-methylimidazo[1,5-a]quinoxaline-8-carboxamide]", "CC50": "100 to 1000"},
      {"smiles": "COc1cc(C(F)(F)F)ccc1[C@H](C)N(C)C(=O)c1cc2c(cc1F)nc(N)c1cncn12", "note": "[Ff-536, (S)-4-amino-7-fluoro-N-(1-(2-methoxy-4-(trifluoromethyl)phenyl)ethyl)-N-methylimidazo[1,5-a]quinoxaline-8-carboxamide]", "CC50": "100 to 1000"}
    ]}
  ]
}
